Experimental data published in EP1184367A1, “AMIDE DERIVATIVES” (Sumitomo Pharmaceuticals Company, Limited, priority 1999, dated 2000).
Read-outs that look alike come from different tables or passages of the source.

Test system: constant white light-induced retinal damage
From the text: Male Wistar rats (7 weeks old, Charles River Japan Inc.) were purchased and maintained in cyclic light / dark environment (8:00-20:00 / light term) for one week, and then placed within the apparatus for constant white light exposure for two days. The constant white light exposure apparatus is a covered breeding box of 1020 mm in length, 425 mm in width, 520 mm in height, which is made of acryl boards and of which all inner side are covered with mirrors. Light was continuously irradiated all the day long (24 hours) using white fluorescent lamp attached to the ceiling of the apparatus. The average illuminance in the apparatus was 174.2 foot candle. After two days in the apparatus, the rats were moved to a darkroom and dark adapted for 1-4 hours. The rats were anesthetized with pentobarbital and placed in a stereotaxic frame. After topical mydriatica was given and electrodes were put on corneal surface, center of the forehead and the lower part of the lobe, the response in active potential of retina to the flash stimulation with fixed energy was determined from the recorded ERG (electroretinogram). The damage of retina was evaluated by the decrease in the amplitude of ERG a-wave which originated from retinal outer nuclear cells (photoreceptors). […]

Structure (SMILES) | % recovery (Mean±S.E.M.) (rat, in vivo, po, 100 mg/kg) | % recovery (Mean±S.E.M.) (rats, 100 mg/kg orally administered in 0.5 % methylcellulose, just before constant light exposure and at the same time on the next day, two days of exposure, ERG a-wave amplitude relative to normal control and MC groups, five rats in a group)
CC(C)(COC(=O)CCC(=O)O)NC(=O)c1ccc(F)cc1F [Example 3, N-(2-(3-Carboxypropionyloxy)-1,1-dimethylethyl)-2,4-difluorobenzamide] | 14.0 ± 3.1% | 
CC(C)(COC(=O)CN)NC(=O)c1ccc(F)cc1F.O=S(=O)(O)c1ccccc1 [Example 4, N-(2-Glycyloxy-1,1-dimethylethyl)-2,4-difluorobenzamide benzenesulfonate] |  | 19.5 ± 3.3%
